Test results: PubChem BioAssay (NCI)
Several values for one entry are separate records, joined by “and”; a condition that tells them apart may be missing. Identical values can stand only once.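 How tested: cells in 96-well plates exposed to compound for 48 hours at five concentrations. GI50 marks 50% less growth. TGI: total growth inhibition.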

Tests used:
Assay in all cases: NCI tumour cell line growth inhibition, 48 h
786-0 renal = system: 786-0 renal
COLO 205 colon = system: COLO 205 colon
HCT-15 colon = system: HCT-15 colon
HL-60(TB) leukemia = system: HL-60(TB) leukemia
HT29 colon = system: HT29 colon
IGROV1 ovarian = system: IGROV1 ovarian
KM12 colon = system: KM12 colon
SK-MEL-5 melanoma = system: SK-MEL-5 melanoma
SK-OV-3 ovarian = system: SK-OV-3 ovarian
SNB-19 CNS = system: SNB-19 CNS

Row | SMILES | GI50 (786-0 renal) | TGI (786-0 renal) | GI50 (COLO 205 colon) | TGI (COLO 205 colon) | GI50 (HCT-15 colon) | TGI (HCT-15 colon) [µM] | GI50 (HL-60(TB) leukemia) | GI50 (HT29 colon) | GI50 (IGROV1 ovarian) | TGI (IGROV1 ovarian) | GI50 (KM12 colon) | TGI (KM12 colon) | GI50 (SK-MEL-5 melanoma) | TGI (SK-MEL-5 melanoma) | GI50 (SK-OV-3 ovarian) | TGI (SK-OV-3 ovarian) | GI50 (SNB-19 CNS) | TGI (SNB-19 CNS) | TGI (HL-60(TB) leukemia) | TGI (HT29 colon) [µM]
1 | COc1cc(OC)cc(N2CCN(C(=O)Nc3nc4cc(F)ccc4nc3OC)CC2)c1 | 0.0487 µM and 0.046 µM and 0.0362 µM | 31 µM and 22.1 µM | 0.0267 µM and 0.0321 µM and 0.0266 µM | 0.0831 µM and 0.123 µM and 0.0771 µM | 0.0318 µM and 0.0346 µM and 0.034 µM | > 100 | 0.0226 µM and 0.0299 µM and 0.0261 µM | 0.0343 µM and 0.0372 µM and 0.0306 µM | 0.0441 µM and 0.0988 µM and 0.062 µM | 32.3 µM and 39.5 µM | 0.0282 µM and 0.0358 µM and 0.0302 µM | > 100 µM | < 0.023 µM and 0.0297 µM and 0.023 µM | 0.294 µM and 0.399 µM and 0.16 µM | 0.0406 µM and 0.0838 µM and 0.033 µM | > 47.8 µM and 17.1 µM | 0.0418 µM and 0.045 µM and 0.0431 µM | > 95.9 µM and 40.3 µM | – | –
2 | Cc1cccc(N2C(=O)/C(=C/c3ccc(N(CCC#N)CCC#N)cc3C)N=C2c2cc([N+](=O)[O-])ccc2Cl)c1 | – | > 100 µM | – | > 100 µM | – | > 100 | – | – | – | > 100 µM | – | > 100 µM | – | > 100 µM | – | > 100 µM | – | > 100 µM | > 100 µM | > 100
3 | O=C1/C(=C/c2ccccc2)CN(C(=O)OCC(Cl)(Cl)Cl)C/C1=C\c1ccccc1 | – | 5.46 µM | – | 11.2 µM | – | 4.32 | – | – | – | 15.4 µM | – | 3.74 µM | – | 2.95 µM | – | 24.6 µM | – | 11.9 µM | 3.38 µM | 3.63
4 | CCCOc1c2cc(COC3OC(CO)C(O)C(O)C3O)cc1Cc1cc(COC3OC(CO)C(O)C(O)C3O)cc(c1OCCC)Cc1cc(COC3OC(CO)C(O)C(O)C3O)cc(c1OCCC)Cc1cc(COC3OC(CO)C(O)C(O)C3O)cc(c1OCCC)C2 (configuration not stated) | > 100 µM and 28.1 µM | > 100 µM and 89.8 µM | 38.9 µM and 35.9 µM and 13.1 µM | > 100 µM and 26.1 µM | > 100 µM and 42.1 µM | > 100 | 27.8 µM and 78 µM and 7.86 µM | > 100 µM and 89.8 µM and 32.6 µM | 60.2 µM and > 100 µM and 15.9 µM | > 100 µM and 40.8 µM | 75.4 µM and > 100 µM and 19.3 µM | > 100 µM and 39.2 µM | 96.7 µM and > 100 µM and 17.1 µM | > 100 µM and 32.7 µM | > 100 µM and 34.9 µM | > 100 µM | 66.1 µM and > 100 µM and 17.5 µM | > 100 µM and 32.1 µM | 77.7 µM and > 100 µM and 21.6 µM | > 100
5 | O=[N+]([O-])O.[NH-]C1CCCCC1[NH-].[NH-]C1CCCCC1[NH-].[NH-]C1CCCCC1[NH-].[OH-].[OH-].[OH-].[Pt+4].[Pt+4].[Pt+4] (configuration not stated) | 0.0408 µM | 3.19 µM | 0.631 µM | 27.9 µM | 0.223 µM | > 43.5 | 1.09 µM | 0.0889 µM | 0.258 µM | 19.4 µM | 4.05 µM | > 100 µM | 0.0363 µM | 1 µM | 19.6 µM | > 100 µM | 1.06 µM | > 58.9 µM | 4.01 µM | –
6 | O=C(NO)C(O)C(O)C(O)C(O)CO (configuration not stated) | > 100 µM and 55.9 µM | > 100 µM | > 100 µM and 51.5 µM | > 100 µM | > 100 µM | > 100 | > 21.5 µM | > 100 µM and 38.1 µM | > 100 µM and 23.3 µM | > 100 µM and 80.2 µM | > 100 µM and 53.2 µM | > 100 µM | > 100 µM | > 100 µM | > 100 µM | > 100 µM | > 100 µM | > 100 µM | > 21.5 µM | > 100
7 | CC(=O)Nc1ccc(-n2cnc3cc(-c4ccc(OCCN5CCCCC5)cc4)ccc32)cc1 | 0.803 µM | 1.7 µM | 5.2 µM | 10.7 µM | 1.54 µM | 6.38 | 5.26 µM | 1.12 µM | 4.93 µM | 11.5 µM | 0.358 µM | 5.76 µM | 5.22 µM | 9.72 µM | 6.2 µM | 12.2 µM | 8.53 µM | 33.1 µM | 18.2 µM | 3.92
8 | CC(C)(C)NCCC(O)c1cc(C(F)(F)F)nc2c(C(F)(F)F)cccc12 (configuration not stated) | – | 19.6 µM | – | 25.5 µM | – | 21 | – | – | – | 23.8 µM | – | 7.58 µM | – | 25.5 µM | – | 30.3 µM | – | 27.3 µM | 27.5 µM | 20.1
